Data set [1] is described as follows: refractive index (Na D-line) (dimensionless). As to conditions: 298.15 K; 101.33 kPa; Liquid; Standard Abbe refractometry.
The conditions of data set [2]: Liquid; for mass density: 298.15 K, 101.33 kPa, Pycnometric method; for Normal boiling temperature: Ebulliometric method (Recirculating still).
Data set [3] in a line: Boiling temperature at pressure P. As to conditions: Liquid, Ebulliometric method (Recirculating still).

Each structure is given as a SMILES string. ± gives the expanded uncertainty stated by the source.

As usually defined, the refractive index is the speed of light in vacuum divided by its phase velocity in the sample. For orientation: mass density means the mass of a sample divided by its volume. On to `CCCCO` [butan-1-ol], for which the refractive index in data set [1] is listed as 1.3967 ± 0.0007. Moreover, in data set [2], the mass density is on record as 805.2 ± 0.7 kg/m3.

Regarding `CCCO` [propan-1-ol], the refractive index in data set [1] was determined as 1.3833 ± 0.0007. For the same molecule, in data set [2], the mass density was found to be 799.3 ± 0.7 kg/m3 and the Normal boiling temperature was found to be 97.16 ± 0.2 °C.

On to `CCCCOCOC` [1-(methoxymethoxy)-butane], for which the “Boiling temperature at pressure P” value was 49.24 ± 0.21 °C in data set [3] (8.01 kPa); 70.88 ± 0.2 °C in data set [3] (20 kPa); 81.73 ± 0.2 °C in data set [3] (30 kPa); 85.81 ± 0.2 °C in data set [3] (34.84 kPa); 89.66 ± 0.2 °C in data set [3] (39.85 kPa); 96.50 ± 0.2 °C in data set [3] (50 kPa). For the same molecule, the “Boiling temperature at pressure P” value in data set [3] (55.02 kPa) came to 99.39 ± 0.2 °C. In addition, the refractive index in data set [1] is given as 1.387 ± 0.0007. In addition, in data set [2], the mass density was found to be 837.1 ± 0.8 kg/m3. Also, in data set [2], the Normal boiling temperature amounted to 119.44 ± 0.2 °C.

The record behind these values is the NIST ThermoML archive (doi:10.1016/j.fluid.2014.12.029).
